Measurements from US10669545B2, “Tumor cell malignant transformation suppressor and anti-tumor agent” (JAPAN SCIENCE AND TECHNOLOGY AGENCY, priority 2015, dated 2020).

Experiments:
Assay type in all cases: cell-based, human
A375 cells = assay: Cell proliferation / cell number count, A375 cells
Experimental: In cell proliferation assay, A375 cells and SK-MEL-28 cells transfected with siZIC5#1, siZIC5#2, siNeg#1, or siNeg#2 described in Table 2 in the same manner as Example 1 were plated at 1,000 to 2,000 cells/well in 96-well plates. The number of cells transfected with each siRNA was measured over time. Regarding counting the number of cells, cell nuclei were stained with Hoechst 33342 (manufactured by Dojindo, Kumamoto, Japan), and the total cell number in each well was counted by using an IN Cell Analyzer 2000 (manufactured by GE Healthcare, Piscataway, N.J.).
Furthermore, a cell cycle of each cell was examined with respect to A375 cells. An average value (SD) of percentages (%) of cells in G1 population, S population, and G2M population of each cell is shown in Table 9. […] As a result, percentages of cells in the S population and G2M population of A375 cells were reduced by PDGFD gene knockdown.
In addition, the number of cells of A375 cells transfected with siPDGFD#1, siPDGFD#2, or siNeg#1 was successively counted. The statistical difference was determined using the Dunnett's multiple comparisons of means test (**: P<0.01, *: P<0.05).
The result of a relative cell number (n=3) in which the number of cells of the cells treated with rat IgG was set to 1 is shown in FIG. 28. […]

[1] = system: phosphorylated FAK (pFAK); assay: Western blotting of phosphorylated FAK; conditions: siRNA-transfected cells vs siNeg#1; not shown
Excerpt: Because phosphorylation of focal adhesion kinase (FAK), which is activated at Focal adhesion, has been associated with melanoma malignancy (refer to NPL 19), FAK change by ZIC5 was examined. Furthermore, focusing on Integrin, alpha 6 (ITGA6) and platelet-derived growth factor D (PDGFD) among the Focal adhesion-related genes in the altered genes by Zic5 knockdown, change in cells was examined. Specifically, a level of phosphorylated FAK (pFAK), total FAK (FAK), ITGA6, pro-PDGFD, and β-actin in A375 cells transfected with siZIC5 or siNeg was assessed by western blotting. Western blotting was performed in the same manner as above except that anti-pFAK antibody (manufactured by Signalway Antibody), anti-FAK antibody (manufactured by Acris), anti-β-actin antibody (manufactured by Sigma), anti-ITGA6 antibody (manufactured by GeneTex), and anti-PDGFD antibody (manufactured by Santa Cruz) were used.

[2] = system: phosphorylated ERK1/2 (Thr202/204) (pERK); assay: Western blotting of phosphorylated ERK1/2; conditions: vemR-3 cells; PLX4032 or DMSO treatment; siRNA vs siNeg
Experimental: Western blotting was performed in the same manner as above except that anti-pAKT antibody (manufactured by Cell Signaling), anti-AKT antibody (manufactured by Cell Signaling), anti-pERK antibody (manufactured by Cell Signaling), anti-ERK antibody (manufactured by Cell Signaling), and anti-β-actin antibody (manufactured by Sigma) were used.
vemR-1 to 3 cells and HT144 cells were treated with DMSO or PLX4032 solution (which was dissolved in DMSO to become 5 μM) for 48 hours, and the level of pAKT, AKT, pERK, ERK, and β-actin of these cells was assessed by western blotting in the same manner as Example 8.
A375 cells were treated in a medium in which a concentration of a FAK inhibitor I (manufactured by Calbiochem) was 0, 1, 2.5, or 5 μM for 24 hours, and the level of ZIC5, pro-PDGFD, pERK, and β-actin was measured by western blotting. Western blotting was performed in the same manner as above except that anti-ZIC5 antibody (manufactured by Aviva systems biology), anti-PDGFD antibody (manufactured by Santa Cruz), anti-pERK antibody (manufactured by Cell Signaling), and anti-β-actin antibody (manufactured by Sigma) were used.
A375 cells were treated in a medium in which a concentration of Interleukin-6 (IL-6) (manufactured by Novus Biologicals) was 0, 10, or 20 ng/mL for 24 hours, and then western blotting was performed to assess the level of ZIC5, pro-PDGFD, pSTAT3, STAT3, and GAPDH. […]

DU145 cells = assay: Annexin V-positive cells, DU145 cells; conditions: siRNA then docetaxel 5 nM for 24 hours
Experimental: (§1) The percentage of Annexin V-positive cells was measured as follows. First, FITC labeled Annexin V (manufactured by MBL, Nagoya, Japan) and Hoechst33342 were added to each cell and incubated for 40 minutes. Next, a stained state of the incubated cells was analyzed by using DAPI filter and FITC filter of an imaging cytometer, “In Cell Analyzer 2000” (manufactured by GE healthcare). Percentage (%) of […] was determined by In Cell Analyzer Workstation 3.7 (manufactured by GE healthcare). The statistical difference was determined by the Tukey's multiple comparisons of means test (**: P<0.01, *: P<0.05).

vemR-3 cells = assay: Annexin V-positive cells, vemR-3 cells; conditions: vs siNeg
Experimental: as §1
A percentage of apoptotic cells in the obtained cells was detected by using FITC labeled Annexin V (manufactured by MBL, Nagoya, Japan) in the same manner as Example 7.

siPDGFD#1: siRNA for PDGFD gene; targeting sequence CAGGAATTACTCGGTCAATAT (SEQ. NO. 28) (listed as DNA, chemistry not given here)
relative cell number (siNeg#1 set to 1), cell proliferation rate (A375 cells): decrease in cell proliferation rate | FAK phosphorylation (pFAK level) [1]: reduced FAK phosphorylation | pERK level (inactivation of ERK) [2]: the pERK level decreased | apoptosis induced by docetaxel (percentage of Annexin V-positive cells) (DU145 cells): significantly increased | percentage of Annexin V-positive cells (vemR-3 cells): significantly increased
